Molecules are shown by their SMILES. “Also recorded” adds a separate entry of the source.

Data set [1] deals with T1, Recombinant human Cat K (Homo sapiens, UniProt P43235).
T1 sequence (P43235 115-329): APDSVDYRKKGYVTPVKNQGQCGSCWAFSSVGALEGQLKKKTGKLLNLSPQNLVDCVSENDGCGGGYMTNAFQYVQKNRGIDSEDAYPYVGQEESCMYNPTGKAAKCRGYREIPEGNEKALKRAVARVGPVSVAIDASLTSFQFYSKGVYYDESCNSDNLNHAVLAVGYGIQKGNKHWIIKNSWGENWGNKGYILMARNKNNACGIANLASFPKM
As to the kind of experiment: In vitro enzymatic assay of Cat K inhibition (Z-Phe-Arg-AMC fluorescence). The data set is classed as biochemical. The conditions noted are these: pH 6.0, substrate Z-Phe-Arg-AMC, read-out: Cat K IC50 (µM) ± SD. The protocol:
Compounds were tested at eight concentrations (100–0.001 µM). Recombinant human Cat K (5.5 ng/mL) in reaction buffer (50 µL) containing sodium acetate (50 mM), EDTA (2.5 mM), and DTT (1 mM) was added to a 96-well plate containing the test compounds at pH 6.0. The plate was incubated at 37 °C for 15 min, and the fluorescence (F1) was measured at 355 nm excitation and 460 nm emission using a microplate reader (Wallac 1420 Victor2, Norwalk, CA, USA). Subsequently, Z-Phe-Arg-AMC (20 µL, 10 µM) was added, and the plate was incubated at 37 °C for 1 h. Fluorescence (F2) was measured again at 355 nm excitation and 460 nm emission. The inhibition rate was calculated using the formula: inhibition (%) = [control (F2 − F1) − sample (F2–F1)]/[control (F2 − F1) − blank (F2 − F1)] × 100%. IC50 values were calculated using the SPSS 17.0 software.

The subject of data set [2] is RANKL-induced RAW264.7 cells. As to the kind of experiment: In vitro anti-bone resorption assay: CTX-I released into culture medium (ELISA), cells on bovine femur slices. Format: cell-based. The text has this:
(§1) Type I collagen, the predominant structural protein in bone, constitutes approximately 90% of the bone matrix protein [22]. During bone renewal, type I collagen is degraded, releasing short peptide fragments such as the C-terminal peptide of type I collagen (CTX-I) into the bloodstream. The concentration of CTX-I in the patient’s blood serves as a crucial biomarker for evaluating the degree of osteoporosis. In vitro, bone resorption can be assessed by measuring the concentration of CTX-I using a model in which osteoclasts are cultured on bone slices. In this experiment, the in vitro anti-bone resorption activities of the test compounds were evaluated in RANKL-induced RAW264.7 cells. This evaluation was based on the concentration of CTX-I released into the cell culture medium due to bone degradation, as well as the area of bone resorption pits formed on bone slices.
(§2) RAW264.7 cells, obtained from the cell bank of the Chinese Academy of Medical Sciences, were seeded into 96-well plates at a density of 1 × 10^5 cells per well with bovine femur slices. To induce cell differentiation, 50 ng mL^−1 of RANKL was added to the RAW264.7 cells. The cells were cultured for 5 days at 37 °C under 5% CO2 with the test compounds at a concentration of 1 µM. The culture supernatant was collected to measure the CTX-I concentration using ELISA. The bone slices were fixed with 2.5% glutaraldehyde for 7 min, then washed 3 times with 0.25 mol/L ammonium hydroxide, dehydrated using a series of ethanol solutions (40%, 75%, 80%, 95%, and anhydrous ethanol), and dried naturally. After staining with 1% toluidine blue solution at room temperature for 3–4 min, the bone slices were rinsed with distilled water and analyzed using an optical microscope. Bone resorption areas were calculated using image analysis software (iBright CL1500, Redmond, WA, USA).

For data set [3], the system named is RANKL-induced RAW264.7 cells. Nature of the data set: In vitro anti-bone resorption assay: area of bone resorption pits on bone slices (toluidine blue). Format: cell-based. The conditions noted are these: compound 1 µM, 5 days, compared with MIV-711 / model group.
Source text: as §1, §2

In data set [4] the test system is Cat K levels in RAW264.7 cells. As to the kind of experiment: Western blotting assay of Cat K expression. The conditions noted are these: H-9 at 0, 1 and 5 µM for five days, RANKL-treated RAW264.7 cells. Format: cell-based. As for the experimental part: To further verify the anti-bone resorption mechanism of the target compounds, a western blotting assay was carried out to assess the effect of compound H-9 on the expression of Cat K. […] RAW264.7 cells were treated with compound H-9 at concentrations of 0, 1, and 5 µM for five days, followed by cell lysis. Proteins were extracted and analyzed for Cat K levels. […] These western blotting results, combined with enzyme inhibitory activities and molecular docking analyses, confirm that the anti-bone resorption activity of compound H-9 is mediated through the inhibition of Cat K activity.
RAW264.7 cells were seeded into 12-well plates at a density of 1 × 10^5 cells per well, and 50 ng mL^−1 of RANKL was added to induce cell differentiation. The cells were cultured at 37 °C under 5% CO2 and treated with compound H-9 (0, 1, and 5 µM) for 5 days. The cells were then harvested, lysed, and centrifuged at 12,000× g for 10 min. The supernatants were collected and mixed with loading buffer, then heated to 100 °C. Total protein concentrations were determined using a Bio-Rad protein assay ([…], Hercules, CA, USA). The samples were subjected to SDS-PAGE and transferred to a PVDF membrane. The membrane was blocked with 5% non-fat milk, and then, incubated overnight at 4 °C with primary antibody against Cat K and GAPDH. […]

Data set [5] can be described thus: Acute toxicity testing, oral. Format: in vivo, mice. The conditions noted are these: mouse, in vivo, 300 mg/kg/day for 7 days, mice. As for the experimental part:
(§3) Initially, acute toxicity testing was carried out to establish appropriate dosages. Compound H-9 was administered orally at a dose of 300 mg/kg/day for 7 days.

In data set [6] the test system is mice. Nature of the data set: Acute toxicity testing, oral. The data set is classed as in vivo. The conditions noted are these: 300 mg/kg/day for 7 days. The protocol: as §3
Data set [7] deals with OVX-induced-osteoporosis mice. As to the kind of experiment: OVX-induced osteoporosis mouse model, BMD of the thighbone. The data set is classed as in vivo. The conditions noted are these: 16 weeks; for BMD compared to the untreated model group: H-9 90, 30 and 10 mg/kg, raloxifene 5 mg/kg, intragastric. As for the experimental part:
To evaluate the anti-osteoporosis therapeutic potential of compound H-9, an ovariectomized (OVX)-induced osteoporosis mouse model was established and employed. The study included six experimental groups: a blank control group, an untreated model group, three H-9 treatment groups (doses of 90 mg/kg, 30 mg/kg, and 10 mg/kg), and a positive control group treated with raloxifene (5 mg/kg), with 10 mice in each group.
The mice were randomly divided into 2 groups: a blank control group (n = 10) and a model group (n = 50). After a 7-day acclimation period, the model group mice received a bilateral ovariectomy. Subsequently, the model group was further divided into 5 subgroups (n = 10): an untreated model group, three test groups, and a raloxifene group. Ten days after surgery, the three test groups were administered compound H-9 via intragastric administration at doses of 90 mg/kg, 30 mg/kg, and 10 mg/kg, respectively. Raloxifene was given to the positive control group at a dose of 5 mg/kg. All drugs were administered for 16 weeks, with a 1-day break following every 6 consecutive days of administration. The blank control and untreated model groups received an equivalent volume of saline. At the end of the administration period, the mice were anesthetized with sodium pentobarbital, and the BMD of the thighbone was measured using an OSTEOCORE 3 Bone Density Meter (Thule, Marseille, France).

For the compound `COc1ccc(S(=O)(=O)N2CCC[C@@H](C(=O)NCc3ccc(Cl)cc3)C2)cc1` [Compound H-9, (R)-N-(4-chlorobenzyl)-1-((4-methoxyphenyl)sulfonyl)piperidine-3-carboxamide], the IC50 in data set [1] was 0.08 ± 0.03 µM. Besides, in data set [2] (compound 1 µM, 5 days, ELISA), the “CTX-I concentration in the cell culture medium” value was 20.46 ± 3.67 nM. Besides, in data set [2] (compound 1 µM, 5 days, vs untreated model group), the “CTX-I concentration compared to the model group (in words)” value is reported as “reduced CTX-I concentration”. The “Anti-bone resorption effects in vitro compared to MIV-711 (summary statement)” value in data set [2] (in vitro, RAW264.7 cells) is recorded as “comparable to those of MIV-711; also recorded: comparable to that of MIV-711”. The “Anti-bone resorption activity by area of bone resorption pits (in words)” value in data set [3] is “comparable to that of MIV-711”. Moreover, the “Effect on Cat K levels (western blot)” value in data set [4] is “dose-dependent decrease in Cat K levels; also recorded: effectively downregulated cathepsin K expression; also recorded: decreased Cat K levels”. For the same compound, the LD50 at 7 days in data set [5] was > 300 mg/kg. In addition, the Mouse deaths entry in data set [6] is given as “No mouse deaths”. Moreover, the “BMD compared to the untreated model group” value in data set [7] is “increased the bone mineral density; also recorded: significant increases in BMD”. Moreover, the “Efficacy on BMD compared to the positive control” value in data set [7] (H-9 at 90 mg/kg vs raloxifene 5 mg/kg) is given as “comparable to that of the positive control”.
With `O=C(c1ccc(OCCN2CCCCC2)cc1)c1c(-c2ccc(O)cc2)sc2cc(O)ccc12` [raloxifene, reference compound], the “BMD compared to the untreated model group” value in data set [7] is recorded as “significant increases in BMD”.
